# Where two headings read alike, the source gives them in different places.
# Columns and labels:
# S. aureus [1] = experiment: FIC index of pentamidine combined with various salts (checkerboard); type: cell-based, Staphylococcus aureus; conditions: combination of pentamidine isethionate with each salt; FICI≤0.5 synergy, 1-2 additivity, >4 antagonism
# Procedure: (§1) In the following experiments, bacterial cells were cultured in 96-well microtiter plates in cation-adjusted Mueller-Hinton Broth (MHB) for 18 h at 37° C. The main strains used were E. coli (K-12 BW25113) (placed in stationary incubator) and S. aureus (Newman Strain) (incubated at 250 r.p.m). Knockout strains (ΔtolcC and ΔychM) were used from the Keio knockout collection (Baba et al., Construction of Escherichia coli K-12 in-frame, single-gene knockout mutants: the Keio collection. Mol Syst Biol 2, 2006 0008, doi:10.1038/msb4100050 (2006)). For MIC determination and checkerboard analyses, Clinical & Laboratory Standards Institute (CLSI) protocol was used. […] DiSC3 loading of S. aureus cells was performed as previously described (Farha et al., Collapsing the proton motive force to identify synergistic combinations against Staphylococcus aureus. Chemistry & biology 20, 1168-1178, doi:10.1016/j.chembiol.2013.07.006 (2013)). CCCP concentration of 20 μM was used. pH adjustments were made by addition of HCl or NaOH. INT assay and ATP bioluminescence assays were performed as previously described (Farha et al., Collapsing the proton motive force to identify synergistic combinations against Staphylococcus aureus. Chemistry & biology 20, 1168-1178, doi:10.1016/j.chembiol.2013.07.006 (2013)). For chemical-genomic studies, the Keio library was grown overnight in cation-adjusted MHB broth, in 384-well plates. From these, treatment plates (25 mM sodium bicarbonate, or a sterile water control) were inoculated and grown for 15 hours at 37° C., in a stationary incubator. Data was normalized according to Mangat et al (Mangat et al., Rank ordering plate data facilitates data visualization and normalization in high-throughput screening. J Biomol Screen 19, 1314-1320, doi:10.1177/1087057114534298 (2014)), with gene products and GO terms mined from EcoCyc. The GFP promoter library (Keseler et al., EcoCyc: fusing model organism databases with systems biology. Nucleic Acids Res 41, D605-612, doi:10.1093/nar/gks1027 (2013)) was grown for 18 hours at ambient temperature with the same inoculation strategy as with the Keio collection. The analysis pipeline of Zaslaver et al (Zaslaver et al., A comprehensive library of fluorescent transcriptional reporters for Escherichia coli. Nat Methods 3, 623-628, doi:10.1038/nmeth895 (2006)) was used to generate maps of promoter activity, from which lists of promoters with increased or decreased activity were compiled.
# E. coli [2] = experiment: microbe, parasite or virus in culture; type: cell-based, Escherichia coli; conditions: for MIC: Escherichia coli, 18 h, read-out: MIC, E. coli, MHB−
# E. coli [3] = experiment: Checkerboard microdilution with sodium bicarbonate against E. coli; type: cell-based, Escherichia coli
# Procedure: as §1
# (§2) The effect of sodium bicarbonate on the activity of various antibacterial agents was investigated. Clinical isolates of various bacteria were obtained from the American Type Culture Collection (“ATCC”) and the International Health Management Associates (“IHMA”). Fractional inhibitory concentration indices (FICIs) were determined by setting up standard checkerboard broth microdilution assays in 96-well microtiter plates with serially diluted 8 (or 10) concentrations of each drug (sodium bicarbonate and the antibacterial agent). The protocol for checkerboard analyses was based on the CLSI guidelines. Plates were incubated at 37° C. for 18 hours, and optical density was read at 600 nm. At least 3 replicates were done for each query compound.
# (§3) The FIC index (FICI) is the sum of the two FICs. Chemical-chemical interactions with ΣFIC of less or equal to 0.5 were deemed synergistic.
# (§4) As validation, three of the antibiotic agents were further tested with checkerboard analyses. Checkerboard broth microdilution assays were set up in 96-well microtiter plates with serially diluted 8 (or 10) concentrations of each compound (sodium bicarbonate and the antibiotic). The protocol for checkerboard analyses was based on the CLSI guidelines. Plates were incubated at 37° C. for 18 hours, and optical density was read at 600 nm. At least 3 replicates were done for each query compound.
# S. aureus [4] = experiment: microbe, parasite or virus in culture; conditions: for MIC: Staphylococcus aureus, 18 h, read-out: MIC, S. aureus, MHB−
# S. aureus [5] = experiment: Checkerboard microdilution with sodium bicarbonate against S. aureus; type: cell-based, Staphylococcus aureus
# Procedure: as §1, §2, §3, §4
# [6] = E. coli, salt at 25 mM, pH adjusted to 7.4
# [7] = antibiotic agents, MHB in the absence of sodium bicarbonate
# [8] = antibiotic agents, fold shift in MIC, MHB− vs MHB+
molecule,measurement,setting,value
[F-].[Na+] [Sodium fluoride],FIC Index (with pentamidine in S. aureus),S. aureus [1],1
same,MIC of dirithromycin in the presence of the salt,E. coli [2]; [6],128 µg/mL
CN(C)C(=O)C(CCN1CCC(O)(c2ccc(Cl)cc2)CC1)(c1ccccc1)c1ccccc1 [loperamide],interaction with sodium bicarbonate (checkerboard),E. coli [3],synergistic interactions
[H]/N=C(/N)N[C@H]1[C@H](O)[C@@H](O)[C@H](O[C@@H]2O[C@@H](C)[C@](O)(C=O)[C@H]2O[C@@H]2O[C@@H](CO)[C@H](O)[C@@H](O)[C@@H]2NC)[C@@H](N/C(N)=N\[H])[C@@H]1O [Streptomycin],interaction with sodium bicarbonate (checkerboard),E. coli [3],synergistic interactions
same,"MIC, S. aureus, MHB+",S. aureus [4],0.5 μg of antimicrobial agent/mL of buffer
same,MIC,S. aureus [4],2 µg/mL
same,"MIC, E. coli, MHB+",E. coli [2],0.12 μg of antimicrobial agent/mL of buffer
same,MIC,E. coli [2]; [7],0.5 µg/mL
same,interaction with sodium bicarbonate (checkerboard),S. aureus [5],synergistic interactions
CC1=CCCC2C1CCC(C)C2(C)CC/C(C)=C/Cn1c[n+](C)c2c(N)ncnc21.[Cl-] (stereo not shown) [I3],interaction with sodium bicarbonate (checkerboard),S. aureus [5],synergistic interactions
CC(C)[C@@H]1NC(=O)[C@H](C)OC(=O)[C@@H](C(C)C)NC(=O)[C@@H](C(C)C)OC(=O)[C@H](C(C)C)NC(=O)[C@H](C)OC(=O)[C@@H](C(C)C)NC(=O)[C@@H](C(C)C)OC(=O)[C@H](C(C)C)NC(=O)[C@H](C)OC(=O)[C@@H](C(C)C)NC(=O)[C@@H](C(C)C)OC1=O [valinomycin],interaction with sodium bicarbonate (checkerboard),S. aureus [5],synergistic interactions
[Cl-].[Na+] [Sodium chloride],FIC Index (with pentamidine in S. aureus),S. aureus [1],2
same,MIC of dirithromycin in the presence of the salt,E. coli [2]; [6],128 µg/mL
O=S(=O)([O-])[O-].[Na+].[Na+] [Sodium sulfate],FIC Index (with pentamidine in S. aureus),S. aureus [1],2
same,MIC of dirithromycin in the presence of the salt,E. coli [2],128 µg/mL
[Br-].[Na+] [Sodium bromide],FIC Index (with pentamidine in S. aureus),S. aureus [1],2
same,MIC of dirithromycin in the presence of the salt,E. coli [2]; [6],128 µg/mL
O=P(O)(O)O [Sodium phosphate],FIC Index (with pentamidine in S. aureus),S. aureus [1],>8
same,MIC of dirithromycin in the presence of the salt,E. coli [2],>128 µg/mL
CC[C@H]1OC(=O)[C@H](C)[C@@H](O[C@H]2C[C@@](C)(OC)[C@@H](O)[C@H](C)O2)[C@H](C)[C@@H](O[C@@H]2O[C@H](C)C[C@H](N(C)C)[C@H]2O)[C@](C)(O)C[C@@H](C)/C(=N\OCOCCOC)[C@H](C)[C@@H](O)[C@]1(C)O [Roxithromycin],interaction with sodium bicarbonate (checkerboard),E. coli [3],synergistic interactions
same,"MIC, S. aureus, MHB+",S. aureus [4],0.5 μg of antimicrobial agent/mL of buffer
same,MIC,S. aureus [4],4 µg/mL
same,"MIC, E. coli, MHB+",E. coli [2],16 μg of antimicrobial agent/mL of buffer
same,MIC,E. coli [2]; [7],> 128 µg/mL
same,interaction with sodium bicarbonate (checkerboard),S. aureus [5],synergistic interactions
c1cc2c(cc1C1CCCCC1)c1c3n2CCN=C3CCC1 [I1],interaction with sodium bicarbonate (checkerboard),S. aureus [5],synergistic interactions
CC(=O)[O-].[Na+] [Sodium acetate],FIC Index (with pentamidine in S. aureus),S. aureus [1],2
same,MIC of dirithromycin in the presence of the salt,E. coli [2],64 µg/mL
O=[N+]([O-])[O-].[Na+] [Sodium nitrate],FIC Index (with pentamidine in S. aureus),S. aureus [1],2
same,MIC of dirithromycin in the presence of the salt,E. coli [2]; [6],128 µg/mL
O=S(=O)(O)CCO [Isethionic acid],FIC Index (with pentamidine in S. aureus),S. aureus [1],2
same,MIC of dirithromycin in the presence of the salt,E. coli [2]; [6],128 µg/mL
COc1ccc(-c2n(CC(=O)OC3CC(C)CCC3C(C)C)c3ccccc3[n+]2C)cc1.[Cl-] (stereo not shown) [I2],interaction with sodium bicarbonate (checkerboard),S. aureus [5],synergistic interactions
OB(O)O [Boric acid],FIC Index (with pentamidine in S. aureus),S. aureus [1],1
same,MIC of dirithromycin in the presence of the salt,E. coli [2],128 µg/mL
Spiramycin,interaction with sodium bicarbonate (checkerboard),E. coli [3],synergistic interactions
same,"MIC, S. aureus, MHB−",S. aureus [4]; [7],16 μg of antimicrobial agent/mL of buffer
same,"MIC, S. aureus, MHB+","S. aureus [4]; antibiotic agents, MHB in the presence of 25 mM sodium bicarbonate",0.5 μg of antimicrobial agent/mL of buffer
same,"Fold, S. aureus",S. aureus [4]; [8],16
same,"MIC, E. coli, MHB+",E. coli [2],64 μg of antimicrobial agent/mL of buffer
same,"MIC, E. coli, MHB−",E. coli [2]; [7],>128 μg of antimicrobial agent/mL of buffer
same,"Fold, E. coli",E. coli [2]; [8],8
same,interaction with sodium bicarbonate (checkerboard),S. aureus [5],synergistic interactions

# — patent US11400106B2, “Methods for inhibiting microbe growth” (priority 2018, dated 2022)
